Measured values: patent US9434718B2, “TOFA analogs useful in treating dermatological disorders or conditions” (Dermira (Canada), Inc., priority 2009, dated 2016)
Values after ≈ are worked out from the molar mass of the structure shown.

Columns and labels:
[1] = Determination of solubility in synthetic sebum; type: physicochemical; conditions: oil or lipid, thermodynamic from solid, 32° C., agitated overnight, HPLC, read-out: Solubility in Liquid Synthetic Sebum
Method: Compounds described herein can be tested to evaluate their solubility in lipids. To determine the solubility, a synthetic sebum mixture was used. More specifically, approximately 5 mg of a compound was added into 1.5 ml eppendorf tubes, which was then combined with 0.1 ml of synthetic sebum and then briefly vortexed. Mixtures were placed samples in a shaker pre-heated to 32° C. and then agitated overnight. Prior to sampling for HPLC analysis, tubes were placed in an eppendorf centrifuge and spun at 13000 rpm for 5 min to pellet the insoluble drug portion. Following centrifugation, 20 ul of the top portion of the soluble fraction was sampled, in triplicate, into a 2 ml HPLC vial for analysis and the mass recorded. One ml of THF was then added to each vial to solubilize sebum. To determine their concentrations, HPLC analysis of all compounds was carried out under the same running conditions.

SZ95 sebocytes = assay: Inhibition of lipid synthesis in SZ95 sebocytes; type: cell-based, human; conditions: 96-well microtiter plate format
Method: The immortalized human sebocyte cell line, SZ95, was maintained in culture as described in Zouboulis, C. C. et al., J. Invest. Dermatol. (1999), Vol. 113, pp. 1011-1020. Lipid synthesis was stimulated by treating SZ95 cells with arachidonic acid (AA). For measurement of lipid production and lipid inhibition studies, test compounds were dissolved in dimethylsulfoxide (DMSO) and added at the desired concentration in 96-well microtiter plates. The cells were then cultured for up to 72 hours before the plates were washed 3 times with PBS and a final volume of 200 μL PBS/well was added. […] Plate fluorescence was then quantified using a fluorometric plate reader (excitation wavelength: 490 nm; emission wavelength: 590 nm). Inhibition of lipid levels by the test compound was expressed as the % reduction of the fluorescence of AA-stimulated cells in the presence of the test compound relative to the values obtained for the unstimulated control cells. Cell viability was measured by utilizing the conversion of a tetrazolium reagent (MTS) to a colored-formazan product by live cells. […] The color development of the wells was measured using a plate reader at an absorbance of […]. Effect on cell viability by the test compound was expressed as the % reduction of the absorbance for AA-stimulated cells in the presence of the test compound relative to the values obtained for the untreated control cells.

[2] = system: hamster ear sebaceous glands; assay: Hamster ear sebaceous gland model, repeat topical application; type: in vivo, Syrian golden hamster
Method: The Syrian golden hamster ([…]) ear sebaceous gland model was used to evaluate the effect of repeat application of TOFA and TOFA analogs. Male animals were employed since they have larger sebaceous glands than females a consequence of their higher endogenous levels of androgenic hormones. To define compound effects, cross-sections prepared from hamster ears were treated with the neutral lipid-specific stain Oil Red O. Staining results were compared to the untreated ear of the same animal in order to account for any changes in the overall physiological state of the animal as well as potential systemic effects stemming from local drug application.
Typically, compounds were prepared and applied in 40% dimethyl acetamide (DMA)/30% acetone/30% ethanol (vehicle). Animals were typically 10-12 weeks of age and 100-150 g bodyweight at the start of the experiment. Treatment groups consisted of 5-8 animals. Non-anesthetized hamsters were administered the test material onto the ventral surface of the right ear using a pipette at a volume of 20 μl per ear. Materials were gently massaged into the treatment site with a gloved finger for approximately 15 sec. Hamsters received treatment once daily for 15-28 consecutive days. Application of the test articles occurred within the same 4-hour period on each application day. The left ear remained untreated and served as an internal control site. Animals were evaluated daily for general appearance and potential clinical signs related to treatment such as edema, erythema, discoloration or other changes to the ears. Hamsters were also assessed for general health by coat appearance, behavior, and activity level.
Animals were euthanized by CO2 asphyxiation approximately 16-20 h following the final (21st) application. Tissue samples for sebaceous gland analysis were subsequently taken by histology personnel. The right (treated) and left (untreated) ears were carefully removed from euthanized hamsters. A 3.5 mm punch biopsy of the treated ear was marked with a marking dye on the ventral surface. A punch biopsy of the untreated ear was marked with a separate tissue-marking dye on the ventral surface. Tissues were embedded in a labeled mold filled with “Neg 50” cryo-embedding medium and frozen on liquid nitrogen. These blocks were sequentially wrapped in Parafilm® then aluminum foil for storage at −70° C. until required.
To assess sebaceous gland status, ear cross-sections were initially cut at a thickness of approximately 8 μm onto glass slides and immediately fixed with 10% buffered formalin. Sections were stained with the lipid-specific Oil Red O dye by standard methods, covered with Faramount (Dakocytomation, Ca) acrylic mounting medium, cover slipped and then allowed to set. […] Tissue sections stained with Oil Red O were viewed with a Spot RT digital camera mounted on an Olympus BX60 microscope. An image of the section was taken using the 4× microscope objective. The image was saved using the unique animal identification number, slide number, and magnification. Relative sebaceous gland areas (red staining areas) were determined using Image-Pro software (Media Cybernetics Inc., Silver Spring, Md.). The area of image analysis was the dermis which included the region from the epidermal-dermal junction to the midline of the tissue demarcated by the central cartilage line. Data was expressed as percentage of the area of the tissue cross section which was red in color, representative of lipid-containing structures, in comparison to the total area analyzed.
In these experiments, the compound of the invention, TOFA and vehicle were applied onto male hamster ears. At the end of treatment, the hamsters were sacrificed and the area of sebaceous glands in the treated area was determined. […]

[3] = system: moderate to severe acne patients; conditions: oral, at 12 weeks; cited from earlier work
[4] = 21 consecutive days, 75 mM, ear cross-sections (FIG. 3)

CCCCCCCCCCCCCCOc1ccc(C(=O)OC(C)C)o1 [Compound B, isopropyl 5-(tetradecyloxy)furan-2-carboxylate]
solubility [1]: 43 ± 0.5 mg/mL (≈ 117 mM)

CCCCC/C=C\C/C=C\C/C=C\C/C=C\CCCC(=O)O [arachidonic acid]
increase of SZ95 sebocyte lipid levels (SZ95 sebocytes): approximately 5 fold

CCCCCCCCCCCCCCOc1ccc(C(=O)OCC(F)(F)F)o1 [Compound A, 2,2,2-trifluoroethyl 5-(tetradecyloxy)furan-2-carboxylate]
solubility [1]: 28.9 ± 9.2 mg/mL (≈ 71.1 mM) | inflammatory cell presence in skin sections [2, 4]: No appreciable inflammatory cell presence | sebaceous gland area, histological appearance (Oil Red O) [2, 4]: Reduced sebaceous gland area | average gland area lower in comparison to vehicle-treated animals ([2]; after 21 days of application in 40% DMA/30% acetone/30% ethanol (FIG. 2)): 63.5% | sebaceous gland counts versus control values ([2]; samples prepared two weeks after completion of 21-day treatment): significantly lower | sebaceous gland area compared to TOFA and vehicle (FIG. 1) ([2]; topical daily at 75 mM for 21 days in 40% DMA/30% acetone/30% ethanol): ability to reduce sebaceous gland area

CC(c1cc2ccccc2s1)N(O)C(N)=O (centres unmarked) [Zileuton]
reduction in inflammatory lesions [3]: 71% | reduction of sebum lipids [3]: 65%

CCCCCCCCCCCCCCOc1ccc(C(=O)OCc2oc(=O)oc2C)o1 [Compound C, (5-methyl-2-oxo-1,3-dioxol-4-yl)methyl 5-(tetradecyloxy)furan-2-carboxylate]
solubility [1]: 13.6 ± 1.9 mg/mL (≈ 31.2 mM)

CCCCCCCCCCCCCCOc1ccc(C(=O)O)o1 [TOFA, 5-(tetradecyloxy)-2-furancarboxylic acid]
solubility [1]: 1.5 ± 0.4 mg/mL (≈ 4.62 mM) | inflammatory cell presence in skin sections [2, 4]: No appreciable inflammatory cell presence | tolerability of repeat topical applications ([2]; hamster, in vivo): well-tolerated
